From ChEMBL document CHEMBL1201862, “PubChem BioAssay data set” (2004)
Activity calls are given as the source filed them.

Key:
[1] = biological target: T1, Dual specificity protein phosphatase 3 (Homo sapiens, UniProt P51452); assay: SAR VHR1 Fluorescent Assay for In Vitro dose response studies Set 2. [Related pubchem assays (depositor defined):AID1654, AID1661, AID1878]; type: functional
[2] = biological target: T1, Dual specificity protein phosphatase 3; assay: SAR VHR1 absorbance Assay for In Vitro dose response studies. [Related pubchem assays (depositor defined):AID1654, AID1661, AID1878, AID1992, AID2004]
[3] = biological target: T1, Dual specificity protein phosphatase 3; assay: SAR VHR1 Fluorescent Assay for In Vitro dose response studies. [Related pubchem assays (depositor defined):AID1654, AID1661, AID1878, AID1992, AID2004, AID2070, AID2085]; type: functional
[4] = biological target: T2, Dual specificity protein phosphatase 6 (Rattus norvegicus, UniProt Q64346); assay: SAR analysis of inhibitors of MKP-3 - Set 2. [Related pubchem assays (depositor defined):AID1055, AID1661, AID425, AID553, AID566]; type: functional
T2 sequence (Q64346 whole entry): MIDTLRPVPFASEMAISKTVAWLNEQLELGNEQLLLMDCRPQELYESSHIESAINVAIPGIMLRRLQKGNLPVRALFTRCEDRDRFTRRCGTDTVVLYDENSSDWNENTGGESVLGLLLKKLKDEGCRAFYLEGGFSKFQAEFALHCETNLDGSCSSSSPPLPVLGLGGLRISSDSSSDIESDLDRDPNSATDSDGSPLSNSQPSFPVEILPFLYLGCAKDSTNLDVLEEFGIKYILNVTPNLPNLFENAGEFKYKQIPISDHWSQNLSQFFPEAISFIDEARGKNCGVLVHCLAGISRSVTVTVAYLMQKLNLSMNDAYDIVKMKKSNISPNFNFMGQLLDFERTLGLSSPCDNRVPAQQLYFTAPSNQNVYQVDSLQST

[5] = biological target: T3, Tyrosine-protein phosphatase non-receptor type 7 (Homo sapiens, UniProt P35236); assay: redox-dependent HePTP inhibition, mechanism study, biochemical, fluorescence (AID 2068); type: functional
T3 sequence (P35236 whole entry): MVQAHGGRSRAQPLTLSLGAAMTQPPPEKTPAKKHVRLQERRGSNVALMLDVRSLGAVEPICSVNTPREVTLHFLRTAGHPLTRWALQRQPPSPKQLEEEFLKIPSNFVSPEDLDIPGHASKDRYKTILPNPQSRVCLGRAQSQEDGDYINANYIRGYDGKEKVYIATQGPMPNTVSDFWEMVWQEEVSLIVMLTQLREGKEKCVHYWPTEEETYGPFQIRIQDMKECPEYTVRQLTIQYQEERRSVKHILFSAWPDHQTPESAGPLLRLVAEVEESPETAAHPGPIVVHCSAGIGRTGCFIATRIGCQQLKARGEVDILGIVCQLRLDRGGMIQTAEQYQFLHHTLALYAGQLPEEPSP

[6] = biological target: T2, Dual specificity protein phosphatase 6; type: functional
[7] = biological target: T3, Tyrosine-protein phosphatase non-receptor type 7; assay: SAR analysis of chemical inhibitors of HePTP using a Fluorescent assay - Set 2. [Related pubchem assays (depositor defined):AID1059, AID1077, AID1661, AID2085, AID521]; type: functional
J774.A1 = assay: Confirmation of image-based Screening Assay for Inhibitors of Phagocytosis. [Related pubchem assays (depositor defined):AID1029, AID1643]; type: functional, cell-based; settings: Mus musculus
[8] = biological target: T4, Mannose-6-phosphate isomerase (Homo sapiens, UniProt P34949); assay: inhibitors of human PMI, primary screen, biochemical, fluorescence intensity, coupled assay (AID 1209)
T4 sequence (P34949 whole entry): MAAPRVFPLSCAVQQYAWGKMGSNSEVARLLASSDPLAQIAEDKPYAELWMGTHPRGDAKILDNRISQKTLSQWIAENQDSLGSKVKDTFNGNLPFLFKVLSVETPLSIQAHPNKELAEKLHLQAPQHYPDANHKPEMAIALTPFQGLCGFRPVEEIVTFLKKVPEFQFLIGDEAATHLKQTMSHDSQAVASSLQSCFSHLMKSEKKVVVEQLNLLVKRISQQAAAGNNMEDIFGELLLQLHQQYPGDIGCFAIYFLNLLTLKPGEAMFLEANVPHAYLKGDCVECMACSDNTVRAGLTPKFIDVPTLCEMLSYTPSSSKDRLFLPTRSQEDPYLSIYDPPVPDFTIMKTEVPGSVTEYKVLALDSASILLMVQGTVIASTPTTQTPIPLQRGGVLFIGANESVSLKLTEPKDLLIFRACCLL

BJ [9] = assay: cytotoxicity toward BJ-TERT fibroblasts, dose response, cell-based, RAS-independent, luminescence (AID 1933); type: functional; settings: Homo sapiens
[10] = biological target: Bifunctional protein GlmU (Mycobacterium tuberculosis, UniProt P9WMN3); assay: Inhibitors of Mycobacterial Glucosamine-1-phosphate acetyl transferase (GlmU). Secondary screen.; set-up: species or system Mycobacterium tuberculosis H37Rv
Bifunctional protein GlmU, sequence (P9WMN3 whole entry): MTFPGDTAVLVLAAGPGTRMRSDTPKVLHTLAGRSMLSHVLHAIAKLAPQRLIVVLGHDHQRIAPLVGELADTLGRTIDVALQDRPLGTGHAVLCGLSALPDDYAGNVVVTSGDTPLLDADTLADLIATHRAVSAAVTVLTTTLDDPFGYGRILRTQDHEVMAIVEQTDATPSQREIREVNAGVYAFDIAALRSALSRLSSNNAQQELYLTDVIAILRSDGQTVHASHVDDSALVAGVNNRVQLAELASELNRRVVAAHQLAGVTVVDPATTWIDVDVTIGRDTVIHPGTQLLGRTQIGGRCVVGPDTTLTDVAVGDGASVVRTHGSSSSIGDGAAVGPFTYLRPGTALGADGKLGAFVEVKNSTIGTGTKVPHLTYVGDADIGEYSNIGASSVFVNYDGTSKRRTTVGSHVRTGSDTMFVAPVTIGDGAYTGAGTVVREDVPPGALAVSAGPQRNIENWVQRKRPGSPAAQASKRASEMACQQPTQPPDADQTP

BJ [11] = assay: cytotoxicity toward Ras-transformed BJeLR fibroblasts, dose response, cell-based, alamar blue fluorescence, cherrypicked samples (AID 2631); type: functional; settings: Homo sapiens;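 note: confirmatory dose-response assay in RAS-dependent BJ fibroblasts engineered with TERT, LT and ST, with cytotoxicity read by fluorescence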
[12] = Fluorescence-based cell-based high throughput dose response assay for inhibitors of the interaction of nucleotide-binding oligomerization domain containing 2 (NOD2) and the receptor-interacting serine-threonine kinase 2 (RIPK2).; type: functional; settings: Homo sapiens
X-box-binding protein 1 = X-box-binding protein 1 (Homo sapiens, UniProt P17861); type: functional, Cricetulus griseus;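 note: confirmatory dose-response counter-screen serving a CHOP assay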
X-box-binding protein 1, sequence (P17861 whole entry): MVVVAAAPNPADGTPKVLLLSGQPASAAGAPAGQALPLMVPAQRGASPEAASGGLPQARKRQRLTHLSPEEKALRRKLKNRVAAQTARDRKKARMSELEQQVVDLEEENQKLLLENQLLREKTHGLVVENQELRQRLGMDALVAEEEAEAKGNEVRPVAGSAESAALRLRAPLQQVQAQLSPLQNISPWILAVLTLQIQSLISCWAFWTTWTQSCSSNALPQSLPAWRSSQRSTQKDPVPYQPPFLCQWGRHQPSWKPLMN

[13] = biological target: Heat shock protein HSP 90-alpha (Homo sapiens, UniProt P07900); type: functional, organism-based
BJ [14] = assay: cytotoxicity toward BJ-TERT-LT-ST fibroblasts, dose response, cell-based, RAS-independent, luminescence (AID 1935); type: functional; settings: Homo sapiens;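 note: BJ fibroblasts immortalized with TERT plus LT and ST oncogenes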
BJ [15] = assay: cells; type: functional, cell-based; settings: Homo sapiens
[16] = biological target: T4, Mannose-6-phosphate isomerase; assay: human PMI inhibitors, high substrate, primary screen, biochemical, fluorescence intensity, high mannose 6-phosphate (AID 1220)
[17] = cytotoxicity toward DRD oncogenic fibroblasts, dose response, cell-based, non-viral oncogenic, luminescence (AID 1934); type: functional; settings: Homo sapiens
[18] = inhibition of K1F phage lysis, E. coli UTI89, bacterial capsule biogenesis inhibitors, alamar blue (AID 488966); type: functional
Protein RecA = biological target: T5, Protein RecA (Mycobacterium tuberculosis, UniProt P9WHJ3); assay: Fluorescence Cell-Free Homogeneous Dose Retest to Identify Inhibitors of RecA-Intein Splicing Activity. [Related pubchem assays (depositor defined):AID2097, AID2223, AID489010, AID492950]; type: functional
T5 sequence (P9WHJ3 whole entry): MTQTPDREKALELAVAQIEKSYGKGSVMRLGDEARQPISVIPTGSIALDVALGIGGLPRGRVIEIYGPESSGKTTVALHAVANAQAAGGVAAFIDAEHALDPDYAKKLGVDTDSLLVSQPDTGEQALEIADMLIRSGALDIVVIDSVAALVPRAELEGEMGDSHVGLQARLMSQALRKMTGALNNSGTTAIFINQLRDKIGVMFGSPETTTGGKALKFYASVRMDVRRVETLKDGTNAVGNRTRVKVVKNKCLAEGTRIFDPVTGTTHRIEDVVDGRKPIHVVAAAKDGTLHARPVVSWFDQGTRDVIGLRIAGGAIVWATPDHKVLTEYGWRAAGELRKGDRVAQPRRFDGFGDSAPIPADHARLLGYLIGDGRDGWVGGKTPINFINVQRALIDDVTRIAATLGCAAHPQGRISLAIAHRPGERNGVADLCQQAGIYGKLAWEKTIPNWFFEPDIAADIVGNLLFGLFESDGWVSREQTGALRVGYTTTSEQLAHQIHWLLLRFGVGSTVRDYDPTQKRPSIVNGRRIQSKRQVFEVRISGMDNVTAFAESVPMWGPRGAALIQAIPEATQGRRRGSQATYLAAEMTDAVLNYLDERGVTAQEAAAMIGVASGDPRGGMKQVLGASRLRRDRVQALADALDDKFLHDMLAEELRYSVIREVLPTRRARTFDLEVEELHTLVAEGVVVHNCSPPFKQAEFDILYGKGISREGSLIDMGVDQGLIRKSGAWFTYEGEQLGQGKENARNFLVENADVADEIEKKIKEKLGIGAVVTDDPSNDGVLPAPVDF

[19] = biological target: Peroxisome proliferator-activated receptor gamma/Nuclear receptor coactivator 3 (Homo sapiens, UniProt P37231); assay: TR-FRET dose response biochemical High Throughput Screening assay for agonists of the steroid receptor coactivator 3 (SRC-3) recruitment by the peroxisome proliferator-activated receptor gamma (PPAR gamma): non-selective agonists. [Related pubchem assays: 1301 (Confirmation screen.), 1048 (Primary screen.)]; type: functional
[20] = biological target: Peroxisome proliferator-activated receptor gamma/Nuclear receptor coactivator 2 (Homo sapiens, UniProt P37231); assay: (§1) TR-FRET dose response biochemical High Throughput Screening assay for agonists of the steroid receptor coactivator 2 (SRC-2) recruitment by the peroxisome proliferator-activated receptor gamma (PPAR gamma): non-selective agonists. [Related pubchem assays: 1297, 1032 ]; type: functional
Large T antigen = Large T antigen (Simian virus 40, UniProt P03070); type: functional, Betapolyomavirus macacae;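 note: Confirmatory-stage PubChem screen for compounds that inhibit SV40 T antigen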
Large T antigen, sequence (P03070 whole entry): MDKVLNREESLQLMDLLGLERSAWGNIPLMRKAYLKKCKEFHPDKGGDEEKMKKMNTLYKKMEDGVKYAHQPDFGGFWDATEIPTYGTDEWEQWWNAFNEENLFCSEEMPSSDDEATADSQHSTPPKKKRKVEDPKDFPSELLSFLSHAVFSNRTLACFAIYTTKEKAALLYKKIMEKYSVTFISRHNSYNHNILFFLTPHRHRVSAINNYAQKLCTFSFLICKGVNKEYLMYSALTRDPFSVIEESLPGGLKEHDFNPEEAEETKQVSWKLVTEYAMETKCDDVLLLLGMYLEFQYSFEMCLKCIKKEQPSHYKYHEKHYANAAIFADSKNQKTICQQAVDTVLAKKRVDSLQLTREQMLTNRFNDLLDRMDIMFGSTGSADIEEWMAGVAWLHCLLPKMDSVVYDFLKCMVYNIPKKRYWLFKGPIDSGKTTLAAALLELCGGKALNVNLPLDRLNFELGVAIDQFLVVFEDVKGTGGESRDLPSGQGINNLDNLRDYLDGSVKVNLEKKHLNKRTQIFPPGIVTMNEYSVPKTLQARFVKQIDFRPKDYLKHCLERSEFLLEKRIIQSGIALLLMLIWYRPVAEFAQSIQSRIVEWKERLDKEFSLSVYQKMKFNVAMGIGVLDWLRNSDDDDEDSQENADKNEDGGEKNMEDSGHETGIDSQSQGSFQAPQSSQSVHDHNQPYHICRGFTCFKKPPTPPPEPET

[21] = biological target: T6, Endoribonuclease toxin MazF (Escherichia coli K-12, UniProt P0AE70); assay: fluorescent RNA oligo signal without MazF, dose response, counter-screen for MazEF activator project, biochemical, fluorescence, single-stranded RNase substrate (AID 588502); type: functional
T6 sequence (P0AE70 whole entry): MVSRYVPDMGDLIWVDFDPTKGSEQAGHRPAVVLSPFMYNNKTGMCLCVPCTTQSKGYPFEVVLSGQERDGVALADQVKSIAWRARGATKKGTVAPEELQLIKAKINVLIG

[22] = biological target: T7, Replicative DNA helicase DnaB (Mycobacterium tuberculosis, UniProt P9WMR3); assay: DnaB intein splicing inhibitors, dose response, biochemical, cell-free fluorescence (AID 449749); type: functional
T7 sequence (P9WMR3 whole entry): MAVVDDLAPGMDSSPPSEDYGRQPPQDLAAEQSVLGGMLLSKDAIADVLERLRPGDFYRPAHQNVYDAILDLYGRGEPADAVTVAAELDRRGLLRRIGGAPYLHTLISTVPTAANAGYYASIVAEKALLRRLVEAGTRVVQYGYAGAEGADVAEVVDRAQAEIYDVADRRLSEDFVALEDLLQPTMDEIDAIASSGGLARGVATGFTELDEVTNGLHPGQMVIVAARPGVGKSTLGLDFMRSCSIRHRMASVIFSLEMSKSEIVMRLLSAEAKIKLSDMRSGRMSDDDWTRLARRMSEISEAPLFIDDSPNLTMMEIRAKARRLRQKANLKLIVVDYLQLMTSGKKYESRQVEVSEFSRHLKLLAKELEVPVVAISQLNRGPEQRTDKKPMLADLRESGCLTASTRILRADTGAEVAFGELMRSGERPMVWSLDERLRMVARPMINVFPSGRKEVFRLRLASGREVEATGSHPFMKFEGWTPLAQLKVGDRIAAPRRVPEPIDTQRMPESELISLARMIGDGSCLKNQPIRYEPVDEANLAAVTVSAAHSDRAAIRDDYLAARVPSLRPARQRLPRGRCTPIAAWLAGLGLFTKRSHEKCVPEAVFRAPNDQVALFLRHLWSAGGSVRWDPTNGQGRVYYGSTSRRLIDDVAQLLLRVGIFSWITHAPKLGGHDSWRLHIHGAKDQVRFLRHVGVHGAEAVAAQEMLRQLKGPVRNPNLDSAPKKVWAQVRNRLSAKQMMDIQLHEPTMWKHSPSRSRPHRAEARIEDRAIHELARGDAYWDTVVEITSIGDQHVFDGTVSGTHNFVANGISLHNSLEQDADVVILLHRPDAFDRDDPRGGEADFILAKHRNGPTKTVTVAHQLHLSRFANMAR

[23] = biological target: Peroxisome proliferator-activated receptor gamma/Nuclear receptor coactivator 1 (Homo sapiens, UniProt P37231); assay: as §1, with “1 (SRC-1)” for “2 (SRC-2)”, “assays (depositor defined):AID1300, AID1808, AID504735, AID631]” for “assays: 1297, 1032 ]”; type: protein assay
Peroxisome proliferator-activated receptor gamma/Nuclear receptor coactivator 1, sequence (P37231 whole entry): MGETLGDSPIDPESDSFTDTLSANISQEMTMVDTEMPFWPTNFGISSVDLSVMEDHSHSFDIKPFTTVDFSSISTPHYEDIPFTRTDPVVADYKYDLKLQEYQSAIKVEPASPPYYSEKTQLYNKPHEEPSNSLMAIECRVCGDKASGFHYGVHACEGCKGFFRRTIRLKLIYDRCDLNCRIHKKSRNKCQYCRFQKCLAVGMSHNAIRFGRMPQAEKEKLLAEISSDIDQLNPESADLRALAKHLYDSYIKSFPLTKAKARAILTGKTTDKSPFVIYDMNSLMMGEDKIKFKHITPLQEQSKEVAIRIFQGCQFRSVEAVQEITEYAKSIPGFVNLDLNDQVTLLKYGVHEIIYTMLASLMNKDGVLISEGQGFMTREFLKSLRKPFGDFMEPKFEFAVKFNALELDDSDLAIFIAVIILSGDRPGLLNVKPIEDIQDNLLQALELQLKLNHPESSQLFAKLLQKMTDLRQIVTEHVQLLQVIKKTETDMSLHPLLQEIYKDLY
Peroxisome proliferator-activated receptor gamma/Nuclear receptor coactivator 1, sequence (Q15788 whole entry, further chain): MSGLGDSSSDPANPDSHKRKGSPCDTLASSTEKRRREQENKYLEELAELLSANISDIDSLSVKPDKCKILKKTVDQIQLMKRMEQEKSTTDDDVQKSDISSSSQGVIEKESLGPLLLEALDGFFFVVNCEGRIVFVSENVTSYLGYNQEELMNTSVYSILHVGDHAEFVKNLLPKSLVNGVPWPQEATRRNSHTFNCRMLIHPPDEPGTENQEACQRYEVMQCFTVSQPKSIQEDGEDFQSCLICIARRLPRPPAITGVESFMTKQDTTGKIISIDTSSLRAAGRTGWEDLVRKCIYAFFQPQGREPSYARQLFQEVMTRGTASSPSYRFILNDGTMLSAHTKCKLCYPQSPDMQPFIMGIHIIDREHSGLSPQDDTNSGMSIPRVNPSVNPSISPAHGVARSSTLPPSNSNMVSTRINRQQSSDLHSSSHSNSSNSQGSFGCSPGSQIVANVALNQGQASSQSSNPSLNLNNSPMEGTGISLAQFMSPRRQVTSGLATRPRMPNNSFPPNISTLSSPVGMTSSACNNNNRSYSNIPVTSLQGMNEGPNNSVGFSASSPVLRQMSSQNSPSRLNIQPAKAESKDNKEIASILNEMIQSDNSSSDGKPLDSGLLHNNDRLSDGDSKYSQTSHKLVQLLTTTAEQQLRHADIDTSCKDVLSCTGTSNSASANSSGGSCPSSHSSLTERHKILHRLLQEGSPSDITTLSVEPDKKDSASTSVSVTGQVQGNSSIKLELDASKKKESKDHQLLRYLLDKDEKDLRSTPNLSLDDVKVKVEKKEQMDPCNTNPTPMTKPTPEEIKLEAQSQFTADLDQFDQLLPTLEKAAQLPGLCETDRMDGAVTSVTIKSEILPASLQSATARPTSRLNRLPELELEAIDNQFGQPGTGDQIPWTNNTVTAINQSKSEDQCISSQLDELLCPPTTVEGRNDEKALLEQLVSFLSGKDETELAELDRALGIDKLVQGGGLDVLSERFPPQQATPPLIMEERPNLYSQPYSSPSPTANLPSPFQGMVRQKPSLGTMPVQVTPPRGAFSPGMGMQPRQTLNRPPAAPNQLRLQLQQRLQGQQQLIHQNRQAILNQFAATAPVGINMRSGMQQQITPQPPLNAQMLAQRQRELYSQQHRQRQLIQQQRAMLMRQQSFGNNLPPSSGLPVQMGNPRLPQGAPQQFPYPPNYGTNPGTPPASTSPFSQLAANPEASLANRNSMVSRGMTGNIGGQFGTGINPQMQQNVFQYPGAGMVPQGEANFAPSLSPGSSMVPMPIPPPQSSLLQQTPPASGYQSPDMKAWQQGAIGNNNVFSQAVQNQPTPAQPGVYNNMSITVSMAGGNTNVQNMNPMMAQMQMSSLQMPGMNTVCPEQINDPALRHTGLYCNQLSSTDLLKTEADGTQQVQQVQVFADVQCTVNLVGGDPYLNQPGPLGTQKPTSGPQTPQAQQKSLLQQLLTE

[24] = biological target: T6, Endoribonuclease toxin MazF; assay: MazF toxin RNase activators, dose response, biochemical, fluorescence, single-stranded RNA substrate, uHTS hits (AID 588481); type: functional
Vero = Vero cell cytotoxicity, cytotoxicity control for flavivirus capping enzyme inhibitors (AID 588742); type: functional; settings: Chlorocebus sabaeus
[25] = biological target: Polyadenylate-binding protein 1 (Homo sapiens, UniProt P11940); assay: PABP inhibition in translation initiation, SAR follow-up (AID 435018); type: functional
Polyadenylate-binding protein 1, sequence (P11940 whole entry): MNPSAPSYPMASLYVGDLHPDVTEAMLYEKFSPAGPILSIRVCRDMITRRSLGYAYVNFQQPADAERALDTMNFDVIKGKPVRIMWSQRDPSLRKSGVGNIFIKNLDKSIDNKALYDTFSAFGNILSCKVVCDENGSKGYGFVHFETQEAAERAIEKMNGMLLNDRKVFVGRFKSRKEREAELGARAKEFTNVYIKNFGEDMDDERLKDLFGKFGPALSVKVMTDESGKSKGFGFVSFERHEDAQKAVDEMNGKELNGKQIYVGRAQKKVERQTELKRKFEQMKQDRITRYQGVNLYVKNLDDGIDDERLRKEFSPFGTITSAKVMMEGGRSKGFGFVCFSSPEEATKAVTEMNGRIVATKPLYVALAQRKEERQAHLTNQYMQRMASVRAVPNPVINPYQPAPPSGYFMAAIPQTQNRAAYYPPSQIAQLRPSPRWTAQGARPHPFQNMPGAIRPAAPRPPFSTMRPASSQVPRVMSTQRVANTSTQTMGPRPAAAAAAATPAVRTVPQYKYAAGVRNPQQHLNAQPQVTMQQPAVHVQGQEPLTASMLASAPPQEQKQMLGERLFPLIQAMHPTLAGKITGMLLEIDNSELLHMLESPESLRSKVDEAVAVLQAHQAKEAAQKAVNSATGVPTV

[26] = biological target: Eukaryotic translation initiation factor 4H (Homo sapiens, UniProt Q15056); assay: eIF4H inhibition in translation initiation, SAR follow-up (AID 435011); type: functional

T1 sequence (P51452 whole entry): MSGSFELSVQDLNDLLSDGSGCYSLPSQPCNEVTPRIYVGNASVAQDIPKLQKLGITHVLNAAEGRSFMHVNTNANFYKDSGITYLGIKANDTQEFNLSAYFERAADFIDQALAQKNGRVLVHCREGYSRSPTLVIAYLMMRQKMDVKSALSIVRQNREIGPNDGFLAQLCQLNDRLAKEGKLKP

## CCOc1ccc(-n2c(N)c(C(=O)N3CCN(C)CC3)sc2=S)cc1
[1]
  IC50: > 100 µM (inactive)
[2]
  IC50: > 100 µM (inactive)
[3]
  IC50: > 99 µM (inactive)
[4]
  IC50: > 100 µM (inactive)
[5]
  IC50: > 100 µM (inactive)
[6]
  IC50: > 99 µM (inactive)
[7]
  IC50: > 100 µM (inactive)

## CC1=CC(=O)C=C(C)C1=NOS(=O)(=O)c1ccccc1
J774.A1
  IC50: 0.47 µM (active)
[8]
  IC50: 14.4 µM (active)
BJ [9]
  EC50: 4.5 µM (active)
[10]
  IC50: 165 µM (active)
BJ [11]
  EC50: 1.35 µM (inconclusive)
[12]
  IC50: 5.52 µM (active)
X-box-binding protein 1
  Absolute IC50 (XBP1): 10 µM
[13]
  AC50: 0.928 µM (active)
BJ [14]
  EC50: 5.67 µM (inconclusive)
BJ [15]
  EC50: 4.78 µM (active)
[16]
  IC50: 47.3 µM (active)
[17]
  EC50: 7.26 µM (active)

## CC(=O)Oc1c(/C=C(\C#N)C(N)=O)[nH]c2ccccc12
[18]
  IC50: > 300 µM (active)
Protein RecA
  EC50: 0.0314 µM (active)
[19]
  EC50: > 79.4 µM (not active)
[20]
  EC50: 22.6 µM (not active)
Large T antigen
  IC50: 22.8 µM (active)
[21]
  EC50: > 99 µM (inactive)
[22]
  AC50: > 380 µM (inconclusive)
[23]
  EC50: 20.5 µM (inactive)
[24]
  EC50: > 99 µM (inactive)
Vero
  CC50: > 40 µM (active)

## O=C(Nc1ccccc1)C1CCN(C(=O)c2cccs2)CC1
[25]
  IC50: 7.49 µM (active)
[26]
  IC50: 21.4 µM (active)
